Experimental data published in patent publication US10023559B2 (Hoffmann-La Roche Inc., priority 2014, dated 2018).

Experiments:
rat TAAR1 = rat TAAR1 (Rattus norvegicus (Rat), UniProt Q923Y9); test: Radioligand binding assay on rat TAAR1; conditions: for Ki: read-out: Ki(μM) rat, rat TAAR1, HEK-293 membranes, second value of cell pair mouse/rat
Procedure: (§1) Membrane Preparation and Radioligand Binding.
HEK-293 cells stably expressing rat TAAR1 were maintained at 37° C. and 5% CO2 in DMEM high glucose medium, containing fetal calf serum (10%, heat inactivated for 30 min at 56° C.), penicillin/streptomycin (1%), and 375 μg/ml geneticin (Gibco). Cells were released from culture flasks using trypsin/EDTA, harvested, washed twice with ice-cold PBS (without Ca^2+ and Mg^2+), pelleted at 1,000 rpm for 5 min at 4° C., frozen and stored at −80° C. Frozen pellets were suspended in 20 ml HEPES-NaOH (20 mM, pH 7.4) containing 10 mM EDTA and homogenized with a Polytron (PT 6000, Kinematica) at 14,000 rpm for 20 s. The homogenate was centrifuged at 48,000×g for 30 min at 4° C. Subsequently, the supernatant was removed and discarded, and the pellet resuspended in 20 ml HEPES-NaOH (20 mM, pH 7.4) containing 0.1 mM EDTA using the Polytron (20 s at 14,000 rpm). This procedure was repeated and the final pellet resuspended in HEPES-NaOH containing 0.1 mM EDTA and homogenized using the Polytron. Typically, aliquots of 2 ml membrane portions were stored at −80° C. With each new membrane batch the dissociation constant (Kd) was determined via a saturation curve. […] Nonspecific binding was defined as the amount of [H]—(S)-4-[(ethyl-phenyl-amino)-methyl]-4,5-dihydro-oxazol-2-ylamine bound in the presence of 10 M unlabeled ligand. All compounds were tested at a broad range of concentrations (10 pM to 10 μM) in duplicates. […] The 96 deep well plates were incubated for 1 hr at 4° C. Incubations were terminated by rapid filtration through Unifilter-96 plates (Packard Instrument Company) and glass filters GF/C (Perkin Elmer) presoaked for 1 hr in polyethylenimine (0.3%) and washed 3 times with 1 ml of cold binding buffer. After addition of 45 μl of Microscint 40 (PerkinElmer) the Unifilter-96 plate was sealed and after 1 hr the radioactivity counted using a TopCount Microplate Scintillation Counter (Packard Instrument Company).

mouse TAAR1 = mouse TAAR1 (Mus musculus (Mouse), UniProt Q923Y8); test: Radioligand binding assay on mouse TAAR1
Chain of mouse TAAR1 (Q923Y8 whole entry): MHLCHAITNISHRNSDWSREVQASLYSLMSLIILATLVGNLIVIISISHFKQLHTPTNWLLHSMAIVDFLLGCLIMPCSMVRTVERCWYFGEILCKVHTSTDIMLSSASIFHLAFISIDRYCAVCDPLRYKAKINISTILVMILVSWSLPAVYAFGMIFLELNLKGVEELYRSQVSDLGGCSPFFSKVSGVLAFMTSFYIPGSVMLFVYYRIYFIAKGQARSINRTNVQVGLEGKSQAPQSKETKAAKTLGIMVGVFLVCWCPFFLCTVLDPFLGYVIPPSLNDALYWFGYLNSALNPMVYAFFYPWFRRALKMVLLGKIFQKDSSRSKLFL
Procedure: as §1
HEK-293 cells stably expressing mouse TAAR1 were maintained at 37° C. and 5% CO2 in DMEM high glucose medium, containing fetal calf serum (10%, heat inactivated for 30 min at 56° C.), penicillin/streptomycin (1%), and 375 μg/ml geneticin (Gibco). Cells were released from culture flasks using trypsin/EDTA, harvested, washed twice with ice-cold PBS (without Ca^2+ and Mg^2+), pelleted at 1,000 rpm for 5 min at 4° C., frozen and stored at −80° C. Frozen pellets were suspended in 20 ml HEPES-NaOH (20 mM, pH 7.4) containing 10 mM EDTA and homogenized with a Polytron (PT 6000, Kinematica) at 14,000 rpm for 20 s. The homogenate was centrifuged at 48,000×g for 30 min at 4° C. Subsequently, the supernatant was removed and discarded, and the pellet resuspended in 20 ml HEPES-NaOH (20 mM, pH 7.4) containing 0.1 mM EDTA using the Polytron (20 s at 14,000 rpm). This procedure was repeated and the final pellet resuspended in HEPES-NaOH containing 0.1 mM EDTA and homogenized using the Polytron. Typically, aliquots of 2 ml membrane portions were stored at −80° C. With each new membrane batch the dissociation constant (Kd) was determined via a saturation curve. […] Nonspecific binding was defined as the amount of ^3[H]—(S)-4-[(ethyl-phenyl-amino)-methyl]-4,5-dihydro-oxazol-2-ylamine bound in the presence of 10 M unlabeled ligand. All compounds were tested at a broad range of concentrations (10 pM to 10 μM) in duplicates. […] The 96 deep well plates were incubated for 1 hr at 4° C. Incubations were terminated by rapid filtration through Unifilter-96 plates (Packard Instrument Company) and glass filters GF/C (Perkin Elmer) presoaked for 1 hr in polyethylenimine (0.3%) and washed 3 times with 1 ml of cold binding buffer. After addition of 45 μl of Microscint 40 (PerkinElmer) the Unifilter-96 plate was sealed and after 1 hr the radioactivity counted using a TopCount Microplate Scintillation Counter (Packard Instrument Company).

Chain of rat TAAR1 (Q923Y9 whole entry): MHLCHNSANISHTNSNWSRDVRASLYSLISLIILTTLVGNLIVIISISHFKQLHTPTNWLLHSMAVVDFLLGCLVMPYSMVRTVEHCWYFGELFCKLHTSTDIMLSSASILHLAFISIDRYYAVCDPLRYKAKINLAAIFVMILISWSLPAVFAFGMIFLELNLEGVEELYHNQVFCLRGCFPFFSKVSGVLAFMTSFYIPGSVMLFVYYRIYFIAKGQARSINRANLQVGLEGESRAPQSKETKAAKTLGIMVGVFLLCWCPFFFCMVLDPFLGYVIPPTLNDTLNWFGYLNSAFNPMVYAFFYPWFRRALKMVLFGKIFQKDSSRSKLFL

Row | SMILES | Ki (rat TAAR1) | Ki (mouse TAAR1) | Kd (rat TAAR1; read-out: dissociation constant (Kd) of the radioligand, rat TAAR1 membranes, saturation curve, usual value) | Kd (mouse TAAR1; read-out: dissociation constant (Kd) of the radioligand, mouse TAAR1 membranes, saturation curve, usual value)
1 | CCc1n[nH]c(C(=O)Nc2ccc(C[C@@H]3NC[C@@H]3F)cc2)c1C [Example 102, 3-ethyl-N-(4-(((2S,3S)-3-fluoroazetidin-2-yl)methyl)phenyl)-4-methyl-1H-pyrazole-5-carboxamide] | 0.0875 µM | 14.8 nM | – | –
2 | O=C(Nc1ccc(OC2CNC2)cc1)c1[nH]nc(C2CC2)c1F [Example 42, N-[4-(azetidin-3-yloxy)phenyl]-3-cyclopropyl-4-fluoro-1H-pyrazole-5-carboxamide] | 0.113 µM | 15 nM | – | –
3 | O=C(Nc1ccc(C[C@@H]2CCN2)cc1)c1ccc(Cl)cc1 [Example 72, N-[4-[[(2R)-azetidin-2-yl]methyl]phenyl]-4-chloro-benzamide] | 0.0686 µM | 3.9 nM | – | –
4 | O=C(Nc1ccc(OC2CNC2)cc1F)c1cnc(C(F)(F)F)nc1 [Example 39, N-[4-(azetidin-3-yloxy)-2-fluoro-phenyl]-2-(trifluoromethyl)pyrimidine-5-carboxamide] | 0.476 µM | 62.8 nM | – | –
5 | F[C@@H]1CN[C@@H]1Cc1ccccc1 [Example 92, (2R,3R)-2-benzyl-3-fluoroazetidine] | 0.607 µM | 244 nM | – | –
6 | O=C(Nc1ccc(CC2(F)CNC2)cc1)c1ccc(Cl)cc1 [Example 52, 4-chloro-N-[4-[(3-fluoroazetidin-3-yl)methyl]phenyl]benzamide] | 0.0035 µM | 0.9 nM | – | –
7 | O=C(Nc1ccc(C[C@H]2CCN2)cc1)c1ccc(Cl)nc1 [Example 81, N-[4-[[(2S)-azetidin-2-yl]methyl]phenyl]-6-chloro-pyridine-3-carboxamide] | 0.0202 µM | 4.1 nM | – | –
8 | Cn1nc(C(F)(F)F)cc1C(=O)Nc1ccc(OC2CNC2)cc1 [Example 17, N-[4-(azetidin-3-yloxy)phenyl]-2-methyl-5-(trifluoromethyl)pyrazole-3-carboxamide] | 0.0969 µM | 72.9 nM | – | –
9 | FC(F)(F)c1nccc(Nc2ccc(C=C3CNC3)cc2)n1 [Example 62, N-[4-(azetidin-3-ylidenemethyl)phenyl]-2-(trifluoromethyl)pyrimidin-4-amine] | 0.0181 µM | 8.1 nM | – | –
10 | O=C(Nc1ccc(C=C2CNC2)cc1)Nc1cccc(Cl)c1 [Example 118, 1-[4-(azetidin-3-ylidenemethyl)phenyl]-3-(3-chlorophenyl)urea] | 0.0021 µM | 3.8 nM | – | –
11 | O=C(Nc1ccc(OC2CNC2)cc1)c1cc(C2CC2)n[nH]1 [Example 10, N-(4-(azetidin-3-yloxy)phenyl)-3-cyclopropyl-1H-pyrazole-5-carboxamide] | 0.0887 µM | 414 nM | – | –
12 | O=C(Nc1ccc(C(F)(F)C2CNC2)cc1)c1ccc(Cl)cc1 [Example 51, N-[4-[azetidin-3-yl(difluoro)methyl]phenyl]-4-chloro-benzamide] | 0.0515 µM | 1.1 nM | – | –
13 | COc1ccc(NC(=O)Nc2ccc(OC3CNC3)cc2)cc1 [Example 108, 1-[4-(azetidin-3-yloxy)phenyl]-3-(4-methoxyphenyl)urea] | 0.0269 µM | 108 nM | – | –
14 | O=C(Nc1ccc(OC2CNC2)cc1)c1[nH]nc(-c2ccc(Cl)cc2)c1Cl [Example 34, N-[4-(azetidin-3-yloxy)phenyl]-4-chloro-3-(4-chlorophenyl)-1H-pyrazole-5-carboxamide] | 0.0021 µM | 0.9 nM | – | –
15 | CN(c1ccc(NC(=O)c2ccnc(C(F)(F)F)c2)cc1)C1CNC1 [Example 2, N-[4-[azetidin-3-yl(methyl)amino]phenyl]-2-(trifluoromethyl)pyridine-4-carboxamide] | 0.211 µM | 27.2 nM | – | –
16 | CCN(C[C@H]1COC(N)=N1)c1ccccc1 [reference compound] | – | – | ~2.3 nM | ~0.7 nM
17 | Cn1nc(C(F)(F)F)c(Cl)c1C(=O)Nc1ccc(OC2CNC2)cc1 [Example 29, N-[4-(azetidin-3-yloxy)phenyl]-4-chloro-2-methyl-5-(trifluoromethyl)pyrazole-3-carboxamide] | 0.0503 µM | 29 nM | – | –
18 | CCc1n[nH]c(C(=O)Nc2cc(F)c(C=C3CNC3)c(F)c2)c1C [Example 83, N-(4-(azetidin-3-ylidenemethyl)-3,5-difluorophenyl)-3-ethyl-4-methyl-1H-pyrazole-5-carboxamide] | 0.0009 µM | 16.7 nM | – | –
19 | O=C(Nc1ccc(C=C2CNC2)cc1)c1cnc(C(F)(F)F)nc1 [Example 59, N-[4-(azetidin-3-ylidenemethyl)phenyl]-2-(trifluoromethyl)pyrimidine-5-carboxamide] | 0.0079 µM | 8.9 nM | – | –
20 | O=C(Nc1cc(F)c(C=C2CNC2)c(F)c1)c1ccc(Cl)nc1 [Example 84, N-(4-(azetidin-3-ylidenemethyl)-3,5-difluorophenyl)-6-chloronicotinamide] | 0.0014 µM | 3.3 nM | – | –
21 | Cc1ncc(C(=O)Nc2ccc(OC3CNC3)cc2)cn1 [Example 16, N-[4-(azetidin-3-yloxy)phenyl]-2-methyl-pyrimidine-5-carboxamide] | 0.633 µM | 74.6 nM | – | –
22 | F[C@H]1CN[C@@H]1Cc1ccccc1 [Example 93, (2R,3S)-2-benzyl-3-fluoroazetidine] | 2.09 µM | 1280 nM | – | –

Row | SMILES | Ki (rat TAAR1) | Ki (mouse TAAR1) | Kd (rat TAAR1; read-out: dissociation constant (Kd) of the radioligand, rat TAAR1 membranes, saturation curve, usual value) | Kd (mouse TAAR1; read-out: dissociation constant (Kd) of the radioligand, mouse TAAR1 membranes, saturation curve, usual value)
23 | c1ccc(C[C@H]2CCN2)cc1 [Example 89, (S)-2-benzylazetidine] | 0.0822 µM | 1520 nM | – | –
24 | O=C(Nc1ccc(OC2CNC2)cc1)c1[nH]nc(C(F)(F)F)c1Cl [Example 40, N-[4-(azetidin-3-yloxy)phenyl]-4-chloro-3-(trifluoromethyl)-1H-pyrazole-5-carboxamide] | 0.0142 µM | 2.8 nM | – | –
25 | CC(C)c1cc(C(=O)Nc2ccc(C[C@@H]3NC[C@@H]3F)cc2)n(C)n1 [Example 131, N-(4-(((2S,3S)-3-fluoroazetidin-2-yl)methyl)phenyl)-3-isopropyl-1-methyl-1H-pyrazole-5-carboxamide] | 0.126 µM | 119 nM | – | –
26 | CO[C@@H]1CN[C@H]1Cc1ccccc1 [Example 95, (2S,3R)-2-benzyl-3-methoxyazetidine] | 0.648 µM | 2770 nM | – | –
27 | CCOc1ccc(C(=O)Nc2ccc(C[C@@H]3NC[C@@H]3F)cc2)cn1 [Example 128, 6-ethoxy-N-(4-(((2S,3S)-3-fluoroazetidin-2-yl)methyl)phenyl)nicotinamide] | 0.0204 µM | 2.3 nM | – | –
28 | O=C(Nc1ccc(OC2CNC2)cc1)Nc1cccc(Cl)c1 [Example 109, 1-[4-(azetidin-3-yloxy)phenyl]-3-(3-chlorophenyl)urea] | 0.003 µM | 4.6 nM | – | –
29 | O=C(Nc1ccc(C=C2CNC2)cc1)c1n[nH]c(C2CC2)c1Cl [Example 58, N-[4-(azetidin-3-ylidenemethyl)phenyl]-4-chloro-3-cyclopropyl-1H-pyrazole-5-carboxamide] | 0.0188 µM | 1.4 nM | – | –
30 | O=C(Nc1ccc(OC2CNC2)cc1)c1nn(CC(F)(F)F)cc1Cl [Example 21, N-[4-(azetidin-3-yloxy)phenyl]-4-chloro-1-(2,2,2-trifluoroethyl)pyrazole-3-carboxamide] | 0.0207 µM | 653 nM | – | –
31 | F[C@@H]1CN[C@H]1Cc1ccccc1 [Example 91, (2S,3R)-2-benzyl-3-fluoroazetidine] | 0.149 µM | 1070 nM | – | –
32 | O=C(Nc1ccc(SC2CNC2)cc1)Nc1cccc(Cl)c1 [Example 112, 1-[4-(azetidin-3-ylsulfanyl)phenyl]-3-(3-chlorophenyl)urea] | 0.0111 µM | 11.1 nM | – | –
33 | COc1cc(C(=O)Nc2ccc(C[C@H]3NC[C@H]3F)cc2)ccn1 [Example 120, N-(4-(((2R,3R)-3-fluoroazetidin-2-yl)methyl)phenyl)-2-methoxyisonicotinamide] | > 1.5 µM | 10.3 nM | – | –
34 | FC(F)(c1ccc(Br)cc1)C1CNC1 [Example 49, 3-[(4-bromophenyl)-difluoro-methyl]azetidine] | 0.291 µM | 1390 nM | – | –
35 | O=C(Nc1ccc(C=C2CNC2)c(F)c1)c1ccc(Cl)nc1 [Example 86, N-(4-(azetidin-3-ylidenemethyl)-3-fluorophenyl)-6-chloronicotinamide] | 0.0038 µM | 1.8 nM | – | –
36 | O=C(Nc1ccc(C=C2CNC2)cc1)c1ccc(Cl)cc1 [Example 61, N-[4-(azetidin-3-ylidenemethyl)phenyl]-4-chloro-benzamide] | 0.246 µM | 121 nM | – | –
37 | O=C(Nc1ccc(C[C@@H]2NC[C@@H]2F)cc1)c1cnc(C(F)(F)F)nc1 [Example 130, N-(4-(((2S,3S)-3-fluoroazetidin-2-yl)methyl)phenyl)-2-(trifluoromethyl)pyrimidine-5-carboxamide] | 0.0156 µM | 28.2 nM | – | –
38 | O=C(Nc1ccc(C[C@@H]2NC[C@@H]2F)cc1)c1cnc(C2CC2)nc1 [Example 129, 2-cyclopropyl-N-(4-(((2S,3S)-3-fluoroazetidin-2-yl)methyl)phenyl)pyrimidine-5-carboxamide] | 0.055 µM | 8.9 nM | – | –
39 | COc1cc(C(=O)Nc2ccc(C[C@@H]3NC[C@@H]3F)cc2)ccn1 [Example 127, N-(4-(((2S,3S)-3-fluoroazetidin-2-yl)methyl)phenyl)-2-methoxyisonicotinamide] | 0.133 µM | 3.8 nM | – | –
40 | c1ccc(CC2CNC2)cc1 [Example 1, 3-benzylazetidine] | 0.701 µM | 1570 nM | – | –
41 | O=C(Nc1ccc(CC2CNC2)cc1)Nc1cccc(Cl)c1 [Example 115] | 0.0138 µM | 27.2 nM | – | –
42 | FC(F)(F)c1nccc(Nc2ccc(OC3CNC3)cc2)n1 [Example 8, N-[4-(azetidin-3-yloxy)phenyl]-2-(trifluoromethyl)pyrimidin-4-amine] | 0.165 µM | 55 nM | – | –
43 | CO[C@H]1CN[C@@H]1Cc1ccccc1 [Example 101, (2R,3S)-2-benzyl-3-methoxyazetidine] | 2.04 µM | 2610 nM | – | –
44 | CCOc1ccc(C(=O)Nc2ccc(CC3(F)CNC3)cc2)nn1 [Example 67, 6-ethoxy-N-[4-[(3-fluoroazetidin-3-yl)methyl]phenyl]pyridazine-3-carboxamide] | 0.0968 µM | 29.4 nM | – | –
